Test results reported in patent publication US20160278375A1, “BISCATIONIC AND TRISCATIONIC AMPHIPHILES AS ANTIMICROBIAL AGENTS” (Temple University of the Commonwealth System of Higher …, priority 2013, published 2016).

Tests used:
B. subtilis = conditions: pH 7.4; cited from earlier work
S. aureus = conditions: pH 7.4; cited from earlier work
[1] = system: S. aureus, E. faecalis, E. coli and P. aeruginosa; experiment: MIC determination, statements across the bacteria tested; assay type: cell-based; conditions: S. aureus, E. faecalis, E. coli, P. aeruginosa; read-out: MIC values against all four bacterial species tested
Procedure: For the compounds above, respective minimum inhibitory concentration (MIC) values against the Gram-positive S. aureus, E. faecalis, Gram-negative E. coli and P. aeruginosa were determined, respectively, by standard methods. […] Cell viability was verified by serial dilution and plating on MH agar. Both aqueous and fresh media positive controls were performed for each trial. Overnight bacterial cultures of Staphylococcus aureus (SH1000), Enterococcus faecalis (OG1RF), Escherichia coli (MC4100), and Pseudomonas aeruginosa (PAO1-WT) were grown in Mueller-Hinton broth at 37° C., with all but E. faecalis under shaking Overnight cultures were diluted to approximately 10^6 cfu/mL as determined by OD measurement at 640 nm and plating on MH agar.
Each compound was serially diluted two-fold with water from 1 mM down to 1 μM yielding twelve dilutions per compound. In triplicate, 100 µL of each dilution were pipetted into the appropriate well of a 96-well microtiter plate, and then […] of overnight bacterial culture diluted to ca. 10^6 cfu/mL were inoculated into each well. Microtiter plates were incubated at 37° C. for 72 hours. Up to seven compounds were tested against one bacterial species at twelve decreasing concentrations per 96-well plate.

[2] = system: pre-established Staph aureus biofilms; experiment: visual disruption of pre-established biofilms; assay type: cell-based; conditions: disperses biofilms
Procedure: Compound (12,2,0,2,12) causes a visual disruption of pre-established Staph aureus biofilms at 25 μM (micromolar). Thus it at least disperses biofilms at 25 μM.

## N=C(N=C(N)N)Nc1cccc(NC(=N)N=C(N)N)c1 [Compound 11a]
B. subtilis
  MBIC B. subtilis: 30 µM
S. aureus
  MBIC S. aureus: 300 µM

## CCCCCCCCCCCC[N+](C)(C)CCN(C)CC[N+](C)(C)CCCCCCCCCCCC.[Br-].[Br-] [Compound 12, 2, 0, 2, 12]
[1]
  MIC: ≤ 4 µM
[2]
  concentration causing visual disruption of pre-established biofilms: 25 µM

## N=C(N=C(N)N)Nc1cccc(NC(=N)N=C(N)N)c1 [Compound 11b]
B. subtilis
  MBIC B. subtilis: 7 ± 3 µM
S. aureus
  MBIC S. aureus: 750 ± 250 µM
